This is an account of results in patent US20160168140A1, “HETEROCYCLIC COMPOUNDS AS ANTIBIOTIC POTENTIATORS” (priority 2014, published 2016).

In the first experiment the test system is Acinetobacter baumannii (Ab23). The experiment in a line: MIC shift assay of antibiotics (broth microdilution). It is filed as cell-based. Conditions: compound concentration 2 μM; fold shift of colistin MIC; nc = no changeover or no shift. Here is the method: Minimum inhibitory concentration (MIC) shift assays were performed to determine if the test compounds could alter the MIC of existing antibacterial drugs (e.g., ciprofloxacin and colistin) for E. coli, Acinetobacter baumannii, Klebsiella pneumoniae, Pseudomonas aeruginosa, and Enterobacter cloacae. The MIC shift assay is based on the standard broth microdilution MIC determination protocol of Wiegand et al, Nat Protoc. 3(2):163-75 (2008), with slight modifications that allow for the screening of up to seven test compounds in a single plate.
On the day before an assay, bacteria were grown overnight in cation-adjusted Mueller Hinton broth (CAMHB; Teknova, Hollister, Calif.) at 37° C. in an orbital shaker and sub-cultured at a 1:200 dilution the following morning. The cells were grown to OD600=0.5 to 0.8 and then diluted to OD600=0.01. From a serial dilution of each antibiotic at (50 μL of 2× concentrated stock solutions) several concentrations were added to the wells of a sterile, transparent round-bottom 96-well plate (Phenix Research Products, Candler, N.C.), and diluted cells (50 μL) were added to the plates for a starting OD600 of 0.005. […] A row of wells lacking test compound but containing the antibiotic was used to determine the MIC of that antibiotic alone. A column of wells lacking both antibiotic and test compound served as a growth control, and an additional column containing only CAMHB was included as a sterile blank control.
The plates were incubated for 18 to 20 h at 37° C. in an orbital shaker, and the cell density (OD600) was determined the following day in a microplate reader (PolarStar Optima, BMG Labtech). The MIC shift was determined by comparing the MIC of the antibiotic alone to the MIC of the antibiotic plus test compound.
For orientation: Broth dilution looks for growth in wells or tubes with falling amounts of substance.
`Clc1ccc2[nH]cc(/C=C/c3ccc(Cl)c(Cl)c3)c2c1` [compound 365]: the “colistin MIC shift, Ab23 at (compd concentration)” value (“colistin MIC shift, Ab23” for short) was “≧16x (2 μM)”.

With `CN(C)CCCNc1nc(-c2cccc(-c3ccccc3Cl)c2)nc2c(Cl)cccc12` [compound 351], the “colistin MIC shift, Ab23” value is on record as 8-16x.

The same experiment, now with this note: compound concentration 4 μM; fold shift of colistin MIC; nc = no changeover or no shift.
For the compound `CCN(CC)CCCC(C)Nc1nc(-c2cccc(-c3cc(C(F)(F)F)ccc3F)c2)nc2c(C)cccc12` (stereo not drawn) [compound 473], the “colistin MIC shift, Ab23” value is listed as 16x.

As for `Fc1cccc2[nH]cc(/C=C/c3ccc(Cl)c(Cl)c3)c12` [compound 372], the “colistin MIC shift, Ab23” value was 8-32x.

Take `Clc1ccc2[nH]cc(/C=C/c3ccc(Cl)c(Cl)c3)c2c1` [compound 365]: the “colistin MIC shift, Ab23” value is 16-64x (4 μM);.

`CCN(CC)CCCC(C)Nc1nc(-c2cccc(-c3cc(C(F)(F)F)ccc3F)c2)nc2cc(C(F)(F)F)ccc12` (stereo not drawn) [compound 481]: the “colistin MIC shift, Ab23” value is given as 8x.

Regarding `CCN(CC)CCCC(C)Nc1nc(-c2cn(Cc3cccc(Cl)c3)c3c(Cl)cccc23)nc2c(C)cccc12` (racemic) [compound 578], the “colistin MIC shift, Ab23” value turned out to be 16x.

With `CCN(CC)CCCC(C)Nc1nc(-c2cc(Cc3ccccc3)c3ccccc3c2)nc2c(C)cccc12` (stereo not drawn) [compound 447], the “colistin MIC shift, Ab23” value is on record as 4x.

For `CNCCCNc1nc(-c2cn(Cc3ccccc3)c3c(Cl)cccc23)nc2c(C)cccc12` [compound 580], the “colistin MIC shift, Ab23” value is listed as 8x.

For `FC(F)(F)c1ccc2c(-c3ccc(Cl)c(Cl)c3)n[nH]c2c1` [compound 541], the “colistin MIC shift, Ab23” value worked out at 32x.

Take `CN(C)CCCNc1nc(/C=C/c2ccc(F)c(C(F)(F)F)c2)nc2c(C(F)(F)F)cccc12` [compound 332]: the “colistin MIC shift, Ab23” value turned out to be 16x.

In the case of `Cc1cccc(Cn2cc(-c3nc(NCCCN(C)C)c4cccc(C)c4n3)c3cccc(Cl)c32)c1` [compound 575], the “colistin MIC shift, Ab23” value is 16x.

Regarding `CN(C)CCCNc1nc(-c2cn(Cc3ccccc3)c3c(Cl)cccc23)nc2cc(Cl)ccc12` [compound 585], the “colistin MIC shift, Ab23” value amounted to 8x.

In the case of `Cc1c(-c2ccccc2)ccc2c(NCCCN(C)C)nc(-c3cc(Br)cc(C(F)(F)F)c3)nc12` [524d], the “colistin MIC shift, Ab23” value was 16-32x.

As for `CCN(CC)CCCC(C)Nc1nc(/C=C/c2ccc(Cl)c(Cl)c2)nc2c(C(F)(F)F)cccc12` (racemic) [compound 312], the “colistin MIC shift, Ab23” value stood at 16x.

In the case of `CN(C)CCCNc1nc(/C=C/c2cc(C(F)(F)F)c(C(F)(F)F)cc2C(F)(F)F)nc2c(C(F)(F)F)cccc12` [compound 331], the “colistin MIC shift, Ab23” value amounted to 16x.

Take `Cc1cccc2c(NCCCN(C)C)nc(-c3cccc(-c4cc(Cl)cc(Cl)c4)c3)nc12` [compound 470]: the “colistin MIC shift, Ab23” value is on record as 2x.

Consider `Cc1c(Cl)ccc2c(NCCCN(C)C)nc(-c3cc(Br)cc(C(F)(F)F)c3)nc12` [compound 511], for which the “colistin MIC shift, Ab23” value is reported as 64x.

Take `CCNCCCC(C)Nc1nc(-c2cn(Cc3ccccc3)c3c(Cl)cccc23)nc2c(C)cccc12` (racemic) [compound 581]: the “colistin MIC shift, Ab23” value is reported as 4x.

Regarding `CCN(CC)CCCC(C)Nc1nc(/C=C/c2ccc(Cl)c(Cl)c2)nc2c([N+](=O)[O-])cccc12` (racemic) [compound 314], the “colistin MIC shift, Ab23” value is 8x.

Take “E-1-(5-bromo-3-(3,4-dichlorostyryl)-1H-indol-1-yl)-2-(dimethylamino)ethan-1-one [compound 457]”: the “colistin MIC shift, Ab23” value is given as 16x.

For `CCN(CC)CCCC(C)Nc1nc(/C=C/c2ccc(Cl)c(Cl)c2)nc2c(Br)cccc12` (racemic) [compound 316], the “colistin MIC shift, Ab23” value is 2-8x.

Turning to “(S)-2-amino-1-(5-chloro-3-(3,4-dichlorophenyl)-1H-indol-1-yl)butan-1-one methanesulfonate salt [compound 460]”, the “colistin MIC shift, Ab23” value is given as 32x.

As for `CN(C)CCCNc1nc(/C=C/c2ccc(F)c(Cl)c2)nc2c(C(F)(F)F)cccc12` [compound 329], the “colistin MIC shift, Ab23” value is reported as 8x.

Consider `CCN(CC)CCCC(C)Nc1nc(-c2cccc(-c3cccc(Cl)c3Cl)c2)nc2c(C)cccc12` (stereo not drawn) [compound 483], for which the “colistin MIC shift, Ab23” value came to 16x.

Turning to `CCN(CC)CCCC(C)Nc1nc(-c2cn(Cc3ccccc3)c3c(Cl)cccc23)nc2c(Cl)cccc12` (racemic) [compound 566], the “colistin MIC shift, Ab23” value is 8x.

Regarding `Cc1cccc2c(NCCCN3CCNCC3)nc(-c3cc(Br)cc(C(F)(F)F)c3)nc12` [compound 462], the “colistin MIC shift, Ab23” value was 64x.

Consider `Cc1cccc2c(NCCCN(C)C)nc(-c3cc(Br)c4ccccc4c3)nc12` [compound 446], for which the “colistin MIC shift, Ab23” value was 8-16x.

In the case of `Fc1ccc2c(/C=C/c3ccc(Br)c(Br)c3)c[nH]c2c1` [compound 378], the “colistin MIC shift, Ab23” value was 16-32 x.

Take `Fc1ccc2c(/C=C/c3ccc(Cl)c(Cl)c3)c[nH]c2c1` [compound 366]: the “colistin MIC shift, Ab23” value is reported as 16-32x.

Turning to `CCN(CC)CCCC(C)Nc1nc(/C=C/c2ccc(Cl)c(Cl)c2)nc2ccc(Cl)cc12` (racemic) [compound 317], the “colistin MIC shift, Ab23” value is reported as 2x.

As to `Clc1ccc(/C=C/c2c[nH]c3cc(Br)ccc23)cc1Cl` [compound 367], the “colistin MIC shift, Ab23” value was 16-32x.

As to `CCN(CC)CCCC(C)Nc1nc(-c2cccc(-c3cc(F)cc(C(F)(F)F)c3)c2)nc2c(C)cccc12` (stereo not drawn) [compound 475], the “colistin MIC shift, Ab23” value is on record as 4-8x.

`CN(C)CCCNc1nc(-c2cccc(-c3ccc(C(F)(F)F)c(F)c3)c2)nc2c(Cl)cccc12` [compound 489]: the “colistin MIC shift, Ab23” value worked out at 16x.

Regarding `Cc1cccc2c(NCCCN(C)C)nc(-c3cc(-c4ccccn4)cc(C(F)(F)F)c3)nc12` [524b], the “colistin MIC shift, Ab23” value stood at 16x.

`Clc1ccc2[nH]cc(-c3ccc(Cl)c(Cl)c3)c2c1` [compound 395, 5-Chloro-3-(3,4-dichlorophenyl)-1H-indole]: the “colistin MIC shift, Ab23” value is reported as 8x.

As for `CN(C)CCCNc1nc(-c2cccc(-c3cc(F)cc(C(F)(F)F)c3)c2)nc2c(Cl)cccc12` [compound 491], the “colistin MIC shift, Ab23” value came to 32x.

Take `O=[N+]([O-])c1ccc2[nH]cc(/C=C\c3ccc(Cl)c(Cl)c3)c2c1` [compound 380]: the “colistin MIC shift, Ab23” value was 8x.

For the compound `COc1ccc2c(NCCCN(C)C)nc(/C=C/c3ccc(Cl)c(Cl)c3)nc2c1C` [335a], the “colistin MIC shift, Ab23” value came out at 8x.

As for `CN(C)CCCNc1nc(-c2cc(-c3ccccc3)cc(C(F)(F)F)c2)nc2c(C(F)(F)F)cccc12` [compound 514], the “colistin MIC shift, Ab23” value is 16x.

Still in this experiment, the particulars now being: compound concentration 8 μM; fold shift of colistin MIC; nc = no changeover or no shift.
In the case of `CN(C)CCCn1nc(-c2ccc(Cl)c(Cl)c2)c2ccc(C(F)(F)F)cc21` [559a], the “colistin MIC shift, Ab23” value was found to be 8x.

As to `CN(C)CCn1nc(-c2ccc(Cl)c(Cl)c2)c2ccc(C(F)(F)F)cc21` [559c], the “colistin MIC shift, Ab23” value was 2x.

Regarding `Cc1cccc2c(NCCCN(C)C)nc(-c3cccc(C(F)(F)F)c3)nc12` [compound 499], the “colistin MIC shift, Ab23” value is given as 16x.

Staying with this experiment, now noted: compound concentration 10 μM; fold shift of colistin MIC; nc = no changeover or no shift.
For `Fc1cc(-c2n[nH]c3cc(C(F)(F)F)ccc23)ccc1C(F)(F)F` [compound 546], the “colistin MIC shift, Ab23” value was 1x.

`Clc1ccc2[nH]nc(-c3cccc(-c4ccc(Cl)c(Cl)c4)c3)c2c1` [compound 532]: the “colistin MIC shift, Ab23” value is recorded as 4x.

As to `Cc1cccc2c(NCCCN(C)C)nc(-c3ccc(Cl)c(Cl)c3)nc12` [compound 458], the “colistin MIC shift, Ab23” value came out at 16x.

As for `Cc1cccc2c(NCCCN(C)C)nc(-c3cccc(Br)c3)nc12` [compound 455], the “colistin MIC shift, Ab23” value came to 4x.

In the case of `Nc1cc(-c2n[nH]c3cc(C(F)(F)F)ccc23)cc(C(F)(F)F)c1` [compound 554], the “colistin MIC shift, Ab23” value is 8x.

Turning to `O=C(O)CCn1cc(/C=C/c2ccc(Cl)c(Cl)c2)c2ccc(F)cc21` [compound 417], the “colistin MIC shift, Ab23” value is reported as 8x.

With `O=C(c1ccc(Cl)c(Cl)c1)n1nc(-c2ccc(Cl)c(Cl)c2)c2ccc(C(F)(F)F)cc21` [compound 558], the “colistin MIC shift, Ab23” value worked out at 1x.

Take `Clc1cccc(Cn2nc(-c3cccc(-c4ccccc4)c3)c3cc(Cl)ccc32)c1` [compound 533]: the “colistin MIC shift, Ab23” value turned out to be 1x.

Turning to `CN(C)CCCNc1nc(-c2cc(Br)cc(C(F)(F)F)c2)nc2c(F)cccc12` [compound 503], the “colistin MIC shift, Ab23” value was 4x.

On to `FC(F)(F)c1ccc2c(-c3cccc(-c4ccc(Cl)c(Cl)c4)c3)n[nH]c2c1` [compound 527], for which the “colistin MIC shift, Ab23” value was 8x.

`CN(C)CCCNc1nc(-c2cn(Cc3ccccc3)c3c(Cl)cccc23)nc2ccccc12` [compound 563]: the “colistin MIC shift, Ab23” value is listed as 8x.
